Experimental data from a melting point compilation (Tetko et al.; mined from patent text by program, amines drawn as free bases though some values may be those of a salt).

Q: Which melting point does the source give for `COc1cc(I)cc(OC)c1SC` here?
A: 103 to 104 °C

Q: With `Cc1c[nH]c2c(NC(=O)c3c(Cl)cccc3Cl)cccc2c1=O` as the molecule, how does the melting point read?
A: > 300 °C

Q: With `O=CN1CCN(c2nc(N3CCSCC3)c3ncnc(NCc4ccccc4)c3n2)CC1` as the molecule, how does the melting point read?
A: 94 to 96 °C

Q: For `CCOC(=O)C=Cc1ccc(NC(=O)Nc2cccnc2)cc1`, which melting point is on record?
A: 188 to 189 °C

Q: For `CS(=O)CC(=O)Nc1c(C(=O)c2ccccc2)[nH]c2cc(Cl)ccc12` (centres undefined), which melting point is on record?
A: 191 to 192 °C

Q: With `Nc1ccc(F)c(-c2cccnc2)c1F` as the molecule, how does the melting point read?
A: 112 to 113 °C

Q: With `Cc1cc(C(C)(C)C)c(O)c(C)c1COC(=O)c1ccc(C(=O)OCc2c(C)cc(C(C)(C)C)c(O)c2C)cc1` as the molecule, how does the melting point read?
A: 227 to 230 °C

Q: Which melting point does the source give for `CCOC(=O)c1cc([N+](=O)[O-])cn1Cc1ccccc1` here?
A: 73 °C

Q: With `Cc1cc(=O)n(-c2cc3c(cc2F)sc(=O)n3CC(N)=O)c(=O)n1C` as the molecule, how does the melting point read?
A: > 260 °C

Q: Which melting point does the source give for `CCOC(=O)Cn1cc(F)cnc1=O` here?
A: 121 °C

Q: With `CC(C)Oc1ccc(OCc2ccccc2)cc1-c1nc2cc(CNCC(=O)O)cnc2[nH]1` as the molecule, how does the melting point read?
A: 182 to 184 °C

Q: For `CCCCCN1C(=O)C2(COc3cc4c(cc32)CCO4)c2ccccc21` (centres undefined), which melting point is on record?
A: 128 to 129 °C

Q: Which melting point does the source give for `CCOC(=O)C1(C)C=C(Cl)C2=NCN(C)C2=N1` (centres undefined) here?
A: 56 to 58 °C

Q: For `Nc1ccc(-c2nc3c(F)cccc3s2)cc1`, which melting point is on record?
A: 219 to 221 °C

Q: For `CCc1[nH]n(C2CCCC2)c2nc(Cc3ccc(C(F)(F)F)cc3)nc(=O)c1-2`, which melting point is on record?
A: 212 to 213 °C

Q: Which melting point does the source give for `CCOC(=O)c1cc(OCc2ccccc2)c2ccc(Br)cc2c1` here?
A: 105 °C

Q: For `COc1ccc(Sc2ccccc2CC(=O)O)cc1`, which melting point is on record?
A: 102 to 105 °C

Q: With `FC(F)(F)c1cn2c(c1-c1ccccc1)CCC2` as the molecule, how does the melting point read?
A: 154 °C

Q: With `Nc1nc(N)c2cc(Cc3ccc(Cl)c(Cl)c3)ccc2n1` as the molecule, how does the melting point read?
A: 150 to 151 °C

Q: Which melting point does the source give for `CCC(=O)c1cc([C@]2(c3cccc(-c4cccnc4F)c3)N=C(N)N(C)C2=O)cn1CC` here?
A: 94 to 97 °C

Q: For `O=C(Cl)C=Cc1ccc(Cl)cc1`, which melting point is on record?
A: 78 to 80 °C

Q: Which melting point does the source give for `COC(=O)C1CCN(c2ccc(Cl)c(CBr)c2Cl)C1` (centres undefined) here?
A: 94 °C

Q: With `S=C1CN=C(c2ccccc2Cl)c2cc(Cl)ccc2N1` as the molecule, how does the melting point read?
A: 251 to 253 °C

Q: Which melting point does the source give for `O=C(Cc1ccccc1)NC1SCCN1Cc1ccc(Cl)nc1` (centres undefined) here?
A: 157 to 158 °C

Q: Which melting point does the source give for `CCOC(=O)Nc1nc2ccccc2c2c(CC(C)C)n(C)nc12` here?
A: 120 to 121 °C

Q: For `CCCOc1ccccc1-c1nc2ncncc2c(=O)n1N`, which melting point is on record?
A: 261 to 262 °C

Q: Which melting point does the source give for `Cc1cccc2c1ncn2Cc1oc2ccc(Br)cc2c(=O)c1-c1ccccc1` here?
A: 176 to 179 °C

Q: Which melting point does the source give for `CC(C)(O)Cn1c(N)nc2c(N)nc3c(c21)CCCC3` here?
A: > 270 °C

Q: With `CCOC(=O)CN(CCc1ccccc1)C(=O)CCc1nc2c(F)c(F)cc(F)c2s1` as the molecule, how does the melting point read?
A: 78 to 81 °C

Q: Which melting point does the source give for `CCOC(=O)c1ccc(N)c(C)c1` here?
A: 76 to 77 °C

Q: Which melting point does the source give for `CCCCCCOc1ccccc1C(=NCCC(C)(C)C)NC#N` here?
A: 89 to 90 °C

Q: With `CCOC(=O)C(CC)C(=O)Nc1ccc(Br)cc1C` (centres undefined) as the molecule, how does the melting point read?
A: 98 to 100 °C

Q: With `CCN(CC)c1ccc(C2(c3ccc(N(C)C)cc3)OC(=O)c3ccccc32)c(N(CC)CC)c1` (centres undefined) as the molecule, how does the melting point read?
A: 117 to 119 °C

Q: Which melting point does the source give for `CC(=O)SCC(C(=O)NC(C)C(=O)O)C(C)c1ccc(F)cc1` (centres undefined) here?
A: 93 °C

Q: With `c1cc(CCCn2ccnc2)cc(OCc2coc(-c3cccs3)n2)c1` as the molecule, how does the melting point read?
A: 112 to 113 °C

Q: With `CC1CC(NC(=O)c2ccccc2SC#N)CC(C)(C)C1` (centres undefined) as the molecule, how does the melting point read?
A: 117 °C

Q: For `Cc1cc2ccccc2n2c(S)nnc12`, which melting point is on record?
A: 268 °C

Q: Which melting point does the source give for `c1ccc2c(c1)NC(CN1CCOCC1)CO2` (centres undefined) here?
A: 117 to 121 °C

Q: Which melting point does the source give for `N#Cc1c[nH]cc1-c1cccc(C(F)(F)F)c1Cl` here?
A: 82 °C

Q: With `C=CCNC(=NC#N)NCC=C` as the molecule, how does the melting point read?
A: 66.5 to 67 °C

Q: Which melting point does the source give for `COc1cc(N2CCOCC2)ccc1Nc1nc(Nc2ccc(OC)c3c2N(C)C(=O)CCC3)ncc1Cl` here?
A: 230 to 232 °C

Q: With `O=C(Nc1ccccn1)Nc1cccc2c1C1CC(O)CCN1C2=O` (centres undefined) as the molecule, how does the melting point read?
A: 220 °C

Q: Which melting point does the source give for `CCCCn1c(=O)c2c(Cl)cc(Cl)cc2n(Cc2ccccc2)c1=O` here?
A: 101 to 109 °C

Q: Which melting point does the source give for `COC(=O)CCCc1cc2cc(Cl)ccc2n1S(=O)(=O)c1ccc(N2CCOCC2)nc1` here?
A: 130 to 132 °C

Q: Which melting point does the source give for `COc1cc(Nc2c(C#N)cnc3cc(Br)ccc23)c(Cl)cc1Cl` here?
A: 192 to 193 °C

Q: For `CS(=O)(=O)NC(=O)CNC(=O)NCCCCC1CCSS1` (centres undefined), which melting point is on record?
A: 157 to 158 °C

Q: With `NS(=O)(=O)c1cc(C(=O)O)cc([N+](=O)[O-])c1Oc1cccc(C(F)(F)F)c1` as the molecule, how does the melting point read?
A: 210 °C

Q: Which melting point does the source give for `O=C(Nc1ccccc1)c1cc(NC(=S)Nc2cc(Cl)cc(Cl)c2)ccc1F` here?
A: 195 to 196 °C

Q: For `Cc1c(-c2ccccc2)oc2c(S(=O)CCCCCl)cccc2c1=O` (centres undefined), which melting point is on record?
A: 124 to 125 °C

Q: Which melting point does the source give for `CC(C)(C)c1ccc(-c2ccc(-c3ccc(Br)s3)s2)cc1` here?
A: 132 to 136 °C

Q: For `CCOc1cc(Cl)c2cc(F)c(F)c(F)c2n1`, which melting point is on record?
A: 45 °C

Q: For `Cn1nnnc1CC(O)(Cn1cncn1)c1ccc(Cl)cc1Cl` (centres undefined), which melting point is on record?
A: 182 to 184 °C

Q: Which melting point does the source give for `N#C[C@@H]1C[C@H](F)CN1C(=O)CCl` here?
A: 97 to 100 °C

Q: For `Cc1cc(Oc2ccccc2)ccc1C(=O)CBr`, which melting point is on record?
A: 60 to 61 °C

Q: With `CCCCOc1cc(/C=C/C(=O)O)n(Cc2ccc(C(F)(F)F)cc2Cl)n1` as the molecule, how does the melting point read?
A: 172 to 174 °C

Q: Which melting point does the source give for `O=C(C=Cc1ccc(Cl)cc1)C(CC=Cc1ccc(Cl)cc1)c1ccccc1` (centres undefined) here?
A: 115 to 118 °C

Q: For `COC(=O)c1ccc(OC)cc1Oc1cc(Cl)ccc1[N+](=O)[O-]`, which melting point is on record?
A: 121 to 123 °C

Q: For `N#Cc1cccnc1CC1COc2cc3c(cc2O1)OCC31C(=O)Cc2ccccc21` (centres undefined), which melting point is on record?
A: 230 to 233 °C

Q: Which melting point does the source give for `Cc1c(-c2ccc(O)cc2)n(Cc2ccc(OCCN3CCCC3)cc2)c2ccc(O)cc12` here?
A: 105 to 110 °C

Q: Which melting point does the source give for `COC(=O)c1cc(-c2ccc3c(c2)CCO3)n[nH]c1=O` here?
A: 192 to 200 °C

Q: With `CN1C(=O)C(c2ccccc2)=C(c2cn(C)c3ccccc23)C1=O` as the molecule, how does the melting point read?
A: 242 to 246 °C

Q: With `Cc1nc(N)nc(N)c1C=CC(C)(C)c1ccc(F)cc1` as the molecule, how does the melting point read?
A: 164 to 168 °C

Q: For `O=C(O)c1cc(Br)ccc1NCCC=C1c2ccccc2CCc2ccccc21`, which melting point is on record?
A: 226 to 227 °C

Q: With `CC(C)(Oc1cccc(C(=O)c2ccc(Cl)cc2)c1)C(=O)O` as the molecule, how does the melting point read?
A: 144 °C

Q: With `O=c1c2cccnc2sc(=Nc2ccc(C(F)(F)F)cc2)n1Cc1ccccc1` as the molecule, how does the melting point read?
A: 126 to 128 °C

Q: Which melting point does the source give for `CS(=O)(=O)c1ccc(-c2cnn(CC(F)(F)F)c(=O)c2NCC2CC2)cc1` here?
A: 145 to 146 °C

Q: For `CCCCC(=O)OCC(=O)C12OCOC1CC1C3CCC4=CC(=O)C=CC4(C)C3C(O)CC12C` (centres undefined), which melting point is on record?
A: 121 to 122 °C

Q: Which melting point does the source give for `O=C(COc1ccc2ccccc2c1)NCc1ccc(C(=O)O)cc1` here?
A: 188 to 189 °C

Q: For `C=CCc1cc(C2=NNC(=O)CC2)ccc1OCC(O)CNC(C)C` (centres undefined), which melting point is on record?
A: 94 to 96.5 °C

Q: For `CSc1ccc(Oc2ccc([N+](=O)[O-])cc2C#N)cc1`, which melting point is on record?
A: 124 to 126 °C

Q: With `CCNc1nc(SC)ncc1C=Nc1cc(OC)cc(OC)c1` as the molecule, how does the melting point read?
A: 100 to 105 °C

Q: With `Cc1cc(C)c2nc(C3CC3)n(Cc3ncc(C4(C(=O)O)CC=CC4)cn3)c2n1` as the molecule, how does the melting point read?
A: 203 to 204 °C

Q: Which melting point does the source give for `COc1cccc(-c2cc3c(Nc4cccc(Cl)c4)ncnc3[nH]2)c1` here?
A: 262 to 263 °C

Q: For `N#Cc1cnc(Nc2ccc(CCO)cc2)nc1-c1ccccc1`, which melting point is on record?
A: 142 to 143 °C
